Data from patent US20250179052A1, “PYRIMIDINYL-OXY-QUINOLINE BASED HERBICIDAL COMPOUNDS” (SYNGENTA CROP PROTECTION AG, priority 2022, published 2025).

Columns and labels:
Conditions in all cases: 250 g/ha, evaluated after 13 days, five-point scale
[1] = system: Amaranthus retoflexus (AMARE); assay: Pre-emergence herbicidal glasshouse test; assay type: in vivo
[2] = system: Ipomoea hederacea (IPOHE); assay: Pre-emergence herbicidal glasshouse test; assay type: in vivo
[3] = system: Ipomoea hederacea (IPOHE); assay: Post-emergence herbicidal glasshouse test; assay type: in vivo
[4] = system: Echinochloa crus-galli (ECHCG); assay: Pre-emergence herbicidal glasshouse test; assay type: in vivo
[5] = system: Amaranthus retoflexus (AMARE); assay: Post-emergence herbicidal glasshouse test; assay type: in vivo
AMAPA [6] = assay: Post-emergence herbicidal glasshouse test; assay type: in vivo, Amaranthus tuberculatus
AMAPA [7] = assay: Pre-emergence herbicidal glasshouse test; assay type: in vivo, Amaranthus tuberculatus
Setaria faberi (SETFA) [8] = assay: Post-emergence herbicidal glasshouse test; assay type: in vivo
[9] = system: Echinochloa crus-galli (ECHCG); assay: Post-emergence herbicidal glasshouse test; assay type: in vivo
Setaria faberi (SETFA) [10] = assay: Pre-emergence herbicidal glasshouse test; assay type: in vivo

| SMILES | percentage damage caused to the plant, AMARE [1] | percentage damage caused to the plant, IPOHE [2] | percentage damage caused to the plant, IPOHE [3] | percentage damage caused to the plant, ECHCG [4] | percentage damage caused to the plant, AMARE [5] | percentage damage caused to the plant, AMAPA (AMAPA [6]) | percentage damage caused to the plant, AMAPA (AMAPA [7]) | percentage damage caused to the plant, SETFA (Setaria faberi (SETFA) [8]) | percentage damage caused to the plant, ECHCG [9] | percentage damage caused to the plant, SETFA (Setaria faberi (SETFA) [10]) |
| --- | --- | --- | --- | --- | --- | --- | --- | --- | --- | --- |
| FC(F)(F)c1ncc2c(Oc3ncc(Cl)cn3)ccc(Br)c2n1 [Compound 1.071] | 3 (3=41-60%) | 1 (1=0-20%) | 2 (2=21-40%) | 3 (3=41-60%) | 3 (3=41-60%) | 2 (2=21-40%) | 5 (5=81-100%) | 1 (1=0-20%) | 1 (1=0-20%) | 4 (4=61-80%) |
| Cc1ccc(Oc2ncc(Cl)cn2)c2cnc(C(F)(F)F)nc12 [Compound 1.068] | 5 (5=81-100%) | 2 (2=21-40%) | 2 (2=21-40%) | 3 (3=41-60%) | 3 (3=41-60%) | 2 (2=21-40%) | 5 (5=81-100%) | 1 (1=0-20%) | 1 (1=0-20%) | 3 (3=41-60%) |
| Cc1cnc(Oc2cccc3nc(C(F)(F)F)ccc23)nc1 [Compound 1.040] | 5 (5=81-100%) | 5 (5=81-100%) | 5 (5=81-100%) | 5 (5=81-100%) | 4 (4=61-80%) | 4 (4=61-80%) | 5 (5=81-100%) | 4 (4=61-80%) | 4 (4=61-80%) | 5 (5=81-100%) |
| Fc1cnc(Oc2cccc3nc(C(F)(F)F)ncc23)nc1 [Compound 1.070] | 5 (5=81-100%) | 5 (5=81-100%) | 4 (4=61-80%) | 5 (5=81-100%) | 4 (4=61-80%) | 4 (4=61-80%) | 5 (5=81-100%) | 4 (4=61-80%) | 4 (4=61-80%) | 5 (5=81-100%) |
| FC(F)(F)c1ncc2c(Oc3ncccn3)cccc2n1 [Compound 1.008] | 4 (4=61-80%) | 3 (3=41-60%) | 3 (3=41-60%) | 1 (1=0-20%) | 3 (3=41-60%) | 3 (3=41-60%) | 4 (4=61-80%) | 1 (1=0-20%) | 1 (1=0-20%) | 4 (4=61-80%) |
| COc1ncc2c(Oc3ncc(Cl)cn3)cccc2n1 [Compound 1.016] | 5 (5=81-100%) | 4 (4=61-80%) | 2 (2=21-40%) | 3 (3=41-60%) | 4 (4=61-80%) | 5 (5=81-100%) | 5 (5=81-100%) | 1 (1=0-20%) | 1 (1=0-20%) | 3 (3=41-60%) |
| CCOc1ncc2c(Oc3ncc(Cl)cn3)cccc2n1 [Compound 1.063, 5-(5-chloropyrimidin-2-yl)oxy-2-ethoxy-quinazoline] | 5 (5=81-100%) | 5 (5=81-100%) | 5 (5=81-100%) | 5 (5=81-100%) | 5 (5=81-100%) | 5 (5=81-100%) | 5 (5=81-100%) | 4 (4=61-80%) | 5 (5=81-100%) | 4 (4=61-80%) |
| Cc1cc(C(F)(F)F)nc2cccc(Oc3ncc(Cl)cn3)c12 [Compound 1.021] | 1 (1=0-20%) | 1 (1=0-20%) | 2 (2=21-40%) | 1 (1=0-20%) | 3 (3=41-60%) | 2 (2=21-40%) | 1 (1=0-20%) | 1 (1=0-20%) | 1 (1=0-20%) | 1 (1=0-20%) |
| FC(F)(F)c1ncc2c(Oc3ncc(Br)cn3)cccc2n1 [Compound 1.005] | 5 (5=81-100%) | 3 (3=41-60%) | 4 (4=61-80%) | 3 (3=41-60%) | 4 (4=61-80%) | 5 (5=81-100%) | 5 (5=81-100%) | 4 (4=61-80%) | 4 (4=61-80%) | 4 (4=61-80%) |
| Cc1nc(C(F)(F)F)nc2cccc(Oc3ncc(Cl)cn3)c12 [Compound 1.001, 5-(5-chloropyrimidin-2-yl)oxy-4-methyl-2-(trifluoromethyl)quinazoline] | 5 (5=81-100%) | 5 (5=81-100%) | 2 (2=21-40%) | 3 (3=41-60%) | 5 (5=81-100%) | 5 (5=81-100%) | 5 (5=81-100%) | 4 (4=61-80%) | 3 (3=41-60%) | 3 (3=41-60%) |
| Cc1ccc(Oc2ncc(Br)cn2)c2cnc(C(F)(F)Cl)nc12 [Compound 1.047] | 2 (2=21-40%) | 1 (1=0-20%) | 2 (2=21-40%) | 1 (1=0-20%) | 2 (2=21-40%) | 2 (2=21-40%) | 2 (2=21-40%) | 1 (1=0-20%) | 1 (1=0-20%) | 1 (1=0-20%) |
| Cc1nc(C(F)(F)F)nc2c(C#N)ccc(Oc3ncc(Cl)cn3)c12 [Compound 1.064] | 1 (1=0-20%) | 1 (1=0-20%) | 1 (1=0-20%) | 1 (1=0-20%) | 1 (1=0-20%) | 1 (1=0-20%) | 1 (1=0-20%) | 1 (1=0-20%) | 1 (1=0-20%) | 1 (1=0-20%) |
| Cc1cnc(Oc2cccc3nc(C(F)(F)F)ncc23)nc1 [Compound 1.004] | 5 (5=81-100%) | 4 (4=61-80%) | 4 (4=61-80%) | 5 (5=81-100%) | 3 (3=41-60%) | 4 (4=61-80%) | 4 (4=61-80%) | 4 (4=61-80%) | 3 (3=41-60%) | 4 (4=61-80%) |
| N#Cc1cnc(Oc2cccc3nc(C(F)(F)F)ncc23)nc1 [Compound 1.003] | 1 (1=0-20%) | 1 (1=0-20%) | 1 (1=0-20%) | 1 (1=0-20%) | 1 (1=0-20%) | 1 (1=0-20%) | 1 (1=0-20%) | 1 (1=0-20%) | 1 (1=0-20%) | 1 (1=0-20%) |
| FC(F)(F)c1ccc2c(Oc3ncc(Br)cn3)cccc2n1 [Compound 1.041] | 5 (5=81-100%) | 2 (2=21-40%) | 3 (3=41-60%) | 3 (3=41-60%) | 5 (5=81-100%) | 5 (5=81-100%) | 5 (5=81-100%) | 4 (4=61-80%) | 2 (2=21-40%) | 4 (4=61-80%) |
